Ends that are not written are not given here. * marks the point of attachment. code + = amino-terminal bromo-group; mmt = not defined here; nBu = CCCC*

For one test, the target named is lysozyme-biotin (Gallus gallus, UniProt P00698). The test can be described thus: Loop-loop Matrix-scan of CDR loop-peptide pairs with lysozyme-biotin. Type of test: binding. The note with it: lysozyme-biotin 100 ug/ml, in triplo. The procedure:
FIG. 16: Result of the loop-loop 15-mer Matrix-scan of loop-loop CDR-regions of antibodies with lysozyme-biotin (100 ug/ml, in triplo). Using 1 μg/ml lysozyme-biotin no binding is observed (not shown). Controls of only streptavidin-peroxidase in between the tests were negative (not shown). Peptides A, B, C, D, E and F: Peptide-A: +ARERDYRLDYZ (SEQ ID NO: 30) (HCDR3 of 1 fdl.pdb); Peptide-B: +ARGDGNYGYZ (SEQ ID NO: 31) (HCDR3 of 1mlb.pdb); Peptide-C: +LHGNYDFDGZ (SEQ ID NO: 32) (HCDR3 of 3hfl.pdb); Peptide-D: +ANWDGDYZ (SEQ ID NO: 33) (HCDR3 of 3hfm.pdb); Peptide-E: +ARRYGNSFDYZ (SEQ ID NO: 34) (HCDR3 of 1qfw.pdb); Peptide-F: +ARQGTAAQPYWYZ (SEQ ID NO: 35) (HCDR3 of 1qfw.pdb) (1fdl.pdb, 1mlb.pdb, 3hfl.pdb and 3hfm.pdb are antibodies that bind lysozyme; 1qfw.pdb are two antibodies that bind human choriogonadotrophin). All peptides have an amino terminal bromo-group (+) and a carboxyterminal lysine-mmt (Z).
Peptides 1 to 27: Peptide-1: +RASGNIHNYLAZ (SEQ ID NO: 36) (LCDR1 of 1fdl.pdb); Peptide-2: +RASQSISNNLHZ (SEQ ID NO: 37) (LCDR1 of 1mlb.pdb); Peptide-3: +SASSSVNYMYZ (SEQ ID NO: 38) (LCDR1 of 3hfl.pdb); Peptide-4: +RASQSIGNNLHZ (SEQ ID NO: 39) (LCDR1 of 3hfm.pdb); Peptide-5: +RASESVDSYGNSZ (SEQ ID NO: 40) (LCDR1 of 1qfw.pdb); Peptide-6: +ASESVDSYGNSFZ (SEQ ID NO: 41) (LCDR1 of 1qfw.pdb); […]: +SESVDSYGNSFMZ (SEQ ID NO: 42) (LCDR1 of 1qfw.pdb); Peptide-8: +ESVDSYGNSFMQZ (SEQ ID NO: 43) (LCDR1 of 1qfw.pdb); Peptide-9: +RASESVDSYGNSFZ (SEQ ID NO: 44) (LCDR1 of 1qfw.pdb); Peptide-10: +ASESVDSYGNSFMZ (SEQ ID NO: 45) (LCDR1 of 1qfw.pdb); Peptide-11: +SESVDSYGNSFMQZ (SEQ ID NO: 46) (LCDR1 of 1qfw.pdb); Peptide-12: +RASESVDSYGNSFMZ (SEQ ID NO: 47) (LCDR1 of 1qfw.pdb); Peptide-13: +ASESVDSYGNSFMQZ (SEQ ID NO: 48) (LCDR1 of 1qfw.pdb); Peptide-14: +RASESVDSYGNSFMQZ (SEQ ID NO: 49) (LCDR1 of 1qfw.pdb); Peptide-15: +KASETVDSFVSZ (SEQ ID NO: 50) (LCDR1 of 1qfw.pdb); Peptide-16: +LLVYYTTTLADGZ (SEQ ID NO: 51) (LCDR2 of 1fdl.pdb); Peptide-17: +LLIKYVSQSSSGZ (SEQ ID NO: 52) (LCDR2 of 1mlb.pdb); Peptide-18: +RWIYDTSKLASGZ (SEQ ID NO: 53) (LCDR2 of 3hfl.pdb); Peptide-19: +LLIKYASQSISGZ (SEQ ID NO: 54) (LCDR2 of 3hfm.pdb); Peptide-20: +LLIYRASNLESGZ (SEQ ID NO: 55) (LCDR2 of 1qfw.pdb); Peptide-21: LLIFGASNRESGZ (SEQ ID NO: 56) (LCDR2 of 1qfw.pdb); Peptide-22: +QHFWSTPRTZ (SEQ ID NO: 57) (LCDR3 of 1fdl.pdb); Peptide-23: +QQSNSWPRTZ (SEQ ID NO: 58) (LCDR3 of 1mlb.pdb); Peptide-24: +QQWGRNPTZ (SEQ ID NO: 59) (LCDR3 of 3hfl.pdb); Peptide-25: +QQSNSWPYTZ (SEQ ID NO: 60) (LCDR3 of 3hfm.pdb); Peptide-26: +QQSDEYPYMYTZ (SEQ ID NO: 61) (LCDR3 of 1qfw.pdb); Peptide-27: +GQTYNHPYTZ (SEQ ID NO: 62) (LCDR3 of 1qfw.pdb) (1 fdl.pdb, 1mlb.pdb, 3hfl.pdb and 3hfm.pdb are antibodies that bind lysozyme; 1 qfw.pdb are two antibodies that bind human choriogonadotrophin). All peptides have an amioterminal bromo-group (+) and a carboxyterminal lysine-mmt (Z).
From six different antibodies, the HCDR3-region (complementary determining region three of the antibody heavy chain) was synthesized as synthetic loop-peptides. As an example, four different anti-lysozyme antibodies and two different anti-choriogonadotrophin antibodies were selected: 1fdl.pdb (D1.3), 1mlb.pdb (D44.1), 3hfl.pdb (HyHel-5), 3hfm.pdb (HyHel-10) all anti-lysozyme, and 1qfw.pdb, two anti-human choriogonadotrophin, one anti-alpha and one anti-beta. The synthetic loop peptides were coupled to the minicards as described above. The three-dimensional coordinates (pdb-files) were extracted from the Protein Data Bank (PDB) at www.rcsb.org (RCSB, Research Collaboratory for Structural Bioinformatics) (Berman et al., 2000, The Protein Data Bank. Nucleic Acids Research, 28 pp. 235-242; Bernstein et al. 1977, The protein data bank: A computer-based archival file for macromolecular structures. J. Mol. Biol. 112:535-542). […]

The test system of another test is anti-hTNF mAb 210. The test can be described thus: Loop-loop 15-mer Matrix-scan of hTNF loop-peptides with mAb 210. Type of test: binding. The note with it: mAb 210 10 ug/ml. From the text:
FIG. 11: Partial listing of peptides synthesized for loop-loop 15-mer Matrix-scan (1. +AVRSSSRTPSDKPVZ (SEQ ID NO: 3); 2. +VRSSSRTPSDKPVAZ (SEQ ID NO: 4); 3. +RSSSRTPSDKPVAHZ (SEQ ID NO: 5); 4. +SSSRTPSDKPVAHVZ (SEQ ID NO: 6); 5. +SSRTPSDKPVAHVVZ (SEQ ID NO: 7); 145. +FAESGQVYFGIIALZ (SEQ ID NO: 8)). All overlapping 15-mer loop-peptides covering the linear sequence of human tumor necrosis factor (hTNF) were synthesized, i.e., 145 hTNF loop-peptides in total. Z is a Cys-butyl. The amino terminus of all peptides contain a bromo-group (+).
FIG. 12: Configuration of the loop-loop 15-mer Matrix-scan. Schematic representation of matrix-scan with two loop segments. On the polymer surface, a mixture of cys (mmt) and cys (trt) are coupled. After 1% TFA, the cys (mmt) is deprotected. Then, in each square, one peptide is coupled via its N-terminal Bromo-group (+). Thus, peptide-1 in square-1, peptide-2 in square-2, etc., until peptide-145 in square-145. Then, the cys(trt) is deprotected with 95% TFA. Then, in each square, 145 different peptides are spotted simultaneously. Thus, peptide-1 to 145 in square-1, peptide 1-145 in square-2, etc., to peptide-1 to peptide-145 in square-145. Some extra squares were used for controls (linear epitopes).
FIG. 13: Result of the loop-loop 15-mer Matrix-scan with anti-hTNF mAb 210 (10 ug/ml). The result obtained with all 145 squares is plotted. […] On top of these and other squares spots are labeled as well (spots represent first peptide coupled next to second loop peptide). Identified squares and spots: Sq-65: +FKGQGCPSTHVLLTZ (SEQ ID NO: 9); Sq-66: +KGQGCPSTHVLLTHZ (SEQ ID NO: 10); Sq-67: +GQGCPSTHVLLTHTZ (SEQ ID NO: 11); Sq-87: +SYQTKVNLLSAIKSZ (SEQ ID NO: 12); Sq-88: +YQTKVNLLSAIKSPZ (SEQ ID NO: 13); Sq-94: +LLSAIKSPCQRETPZ (SEQ ID NO: 14); Sq-95: +LSAIKSPCQRETPEZ (SEQ ID NO: 15); Sq-127: +LEKGDRLSAEINRPZ (SEQ ID NO: 16); Sq-128: +EKGDRLSAEINRPDZ (SEQ ID NO: 17); Peptide-65: +FKGQGCPSTHVLLTZ (SEQ ID NO: 18); Peptide-70: +CPSTHVLLTHTISRZ (SEQ ID NO: 19); Peptide-72: +STHVLLTHTISRIAZ (SEQ ID NO: 20); Peptide-77: +LTHTISRIAVSYQTZ (SEQ ID NO: 21); Peptide-94: +LLSAIKSPCQRETPZ (SEQ ID NO: 22); Peptide-95: +LSAIKSPCQRETPEZ (SEQ ID NO: 23); Peptide-99: +KSPCQRETPEGAEAZ (SEQ ID NO: 24); Peptide-126: +QLEKGDRLSAEINRZ (SEQ ID NO: 25); Peptide-129: +KGDRLSAEINRPDYZ (SEQ ID NO: 26). The y-axis is in arbitrary units.
FIG. 14: Result of the loop-loop 15-mer Matrix-scan with mAb 210 (10 ug/m) with details of squares 65 and 127. Combination of loop-peptide 65 with loop-peptides 94, 95, combinations of loop-peptide 65 with 126-127, combinations of loop-peptide 127 with loop-peptides 65-77 and combinations of loop-peptide 127 with loop-peptides 94-96 are labeled. The y-axis is in arbitrary units.
The monoclonal antibody mAb-210 raised against hTNF was tested on linear and loop peptides (mAb-210 was bought from R&D Systems, MAB210, clone 1825.12, through ITK Diagnostics Uithoorn, The Netherlands). Firstly, it was tested in Pepscan on all overlapping linear 12-mers covering hTNF. […] Secondly, it was tested in Pepscan matrix-scan on double 15-mer loop-loop peptides (as described in FIGS. 3 and 4 and explained through FIGS. 11-12). Two loop-regions were labeled: peptide sequence GQGCPSTHVLLT (SEQ ID NO: 65) (squares 65 to 67) and SAIKSPCQRE (SEQ ID NO: 28) (squares 92 to 96) (FIGS. 13, 14). In addition in various squares loop peptide spots were identified corresponding to sequence GQGCPSTHVLLT (SEQ ID NO: 65) (spots 65-67); SAIKSPCQRE (SEQ ID NO: 28) (spots 92-96) and KGDRLSAEINR (SEQ ID NO: 29) (spots 126-129) (FIG. 14). These three regions, illustrated in FIG. 15 on the three-dimensional model of hTNF, are located on one side of the hTNF molecule and form one large discontinuous epitope region.

Chain of lysozyme-biotin (P00698 19-147): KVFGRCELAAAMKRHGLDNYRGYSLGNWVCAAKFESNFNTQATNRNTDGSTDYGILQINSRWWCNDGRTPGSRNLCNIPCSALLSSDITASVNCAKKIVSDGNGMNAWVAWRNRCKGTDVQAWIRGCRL

Consider “+LHGNYDFDGZ (SEQ ID NO: 32)+RASESVDSYGNSFZ (SEQ ID NO: 44): loop-loop peptide pair: loop of HCDR3 of 3hfl.pdb and loop of LCDR1 1qfw.pdb (chain 1 {code +}-LHGNYDFDGK(mmt); chain 2 {code +}-RASESVDSYGNSFK(mmt); not fully specified; reading uncertain)”, for which, in the test with lysozyme-biotin, the “binding activity with lysozyme-biotin” value is reported as “highest binding activity”.

As for “+LHGNYDFDGZ (SEQ ID NO: 32)+LLVYYTTTLADGZ (SEQ ID NO: 51): loop-loop peptide pair: loop of HCDR3 of 3hfl.pdb and loop of LCDR2 1fdl.pdb (chain 1 {code +}-LHGNYDFDGK(mmt); chain 2 {code +}-LLVYYTTTLADGK(mmt); not fully specified; reading uncertain)”, in the test with lysozyme-biotin, the “binding activity with lysozyme-biotin” value was “highest binding activity”.

Take “+LHGNYDFDGZ (SEQ ID NO: 32)+RASESVDSYGNSFMQZ (SEQ ID NO: 49): loop-loop peptide pair: loop of HCDR3 of 3hfl.pdb and loop of LCDR1 1qfw.pdb (chain 1 {code +}-LHGNYDFDGK(mmt); chain 2 {code +}-RASESVDSYGNSFMQK(mmt); not fully specified; reading uncertain)”: the “binding activity with lysozyme-biotin” value with lysozyme-biotin was “highest binding activity”.

For “+QLEKGDRLSAEINRZ ({code +}-QLEKGDRLSAEINRC(nBu)) [Peptide-126, 15-mer hTNF loop-peptide]”, the “labeling of spots (first peptide coupled next to second loop peptide)” value in the test on anti-hTNF mAb 210 is recorded as “Identified”.

In the case of “+KGQGCPSTHVLLTHZ ({code +}-KGQGCPSTHVLLTHX; not fully specified (residue 15); printed as +KGQGCPSTHVLLTHZ; also: N- and C-terminal linker/cyclisation residues) [Sq-66, 15-mer hTNF loop-peptide]”, the “labeling of squares (firstly coupled loop-peptides)” value with anti-hTNF mAb 210 is recorded as “clearly labeled”.

With “+SYQTKVNLLSAIKSZ ({code +}-SYQTKVNLLSAIKSX; not fully specified (residue 15); printed as +SYQTKVNLLSAIKSZ; also: N- and C-terminal linker/cyclisation residues) [Sq-87, 15-mer hTNF loop-peptide]”, the “labeling of squares (firstly coupled loop-peptides)” value with anti-hTNF mAb 210 is on record as “Identified”.

Turning to “+STHVLLTHTISRIAZ ({code +}-STHVLLTHTISRIAC(nBu)) [Peptide-72, 15-mer hTNF loop-peptide]”, in the test with anti-hTNF mAb 210, the “labeling of spots (first peptide coupled next to second loop peptide)” value was “Identified”.

The values are drawn from US20120190564A1, “IDENTIFICATION OF PROTEIN BINDING SITES” (priority 2000, published 2012).
